These results are taken from patent US20140194477A1, “KINASE PROTEIN BINDING INHIBITORS” (Roswell Park Cancer Institute, priority 2011, published 2014).

For data set [1] the following is noted: literature report; cited from earlier work.
In data set [2] the target is T1, FAK (Homo sapiens, UniProt Q05397). The conditions noted are these: literature report; cited from earlier work.
The test system of a further data set is glioma and ovarian tumor. The conditions noted are these: literature report; cited from earlier work.
The target in a further data set is IGFR kinase (Homo sapiens, UniProt P08069). The settings on record: literature report; cited from earlier work.
Sequence of IGFR kinase (P08069 31-1367): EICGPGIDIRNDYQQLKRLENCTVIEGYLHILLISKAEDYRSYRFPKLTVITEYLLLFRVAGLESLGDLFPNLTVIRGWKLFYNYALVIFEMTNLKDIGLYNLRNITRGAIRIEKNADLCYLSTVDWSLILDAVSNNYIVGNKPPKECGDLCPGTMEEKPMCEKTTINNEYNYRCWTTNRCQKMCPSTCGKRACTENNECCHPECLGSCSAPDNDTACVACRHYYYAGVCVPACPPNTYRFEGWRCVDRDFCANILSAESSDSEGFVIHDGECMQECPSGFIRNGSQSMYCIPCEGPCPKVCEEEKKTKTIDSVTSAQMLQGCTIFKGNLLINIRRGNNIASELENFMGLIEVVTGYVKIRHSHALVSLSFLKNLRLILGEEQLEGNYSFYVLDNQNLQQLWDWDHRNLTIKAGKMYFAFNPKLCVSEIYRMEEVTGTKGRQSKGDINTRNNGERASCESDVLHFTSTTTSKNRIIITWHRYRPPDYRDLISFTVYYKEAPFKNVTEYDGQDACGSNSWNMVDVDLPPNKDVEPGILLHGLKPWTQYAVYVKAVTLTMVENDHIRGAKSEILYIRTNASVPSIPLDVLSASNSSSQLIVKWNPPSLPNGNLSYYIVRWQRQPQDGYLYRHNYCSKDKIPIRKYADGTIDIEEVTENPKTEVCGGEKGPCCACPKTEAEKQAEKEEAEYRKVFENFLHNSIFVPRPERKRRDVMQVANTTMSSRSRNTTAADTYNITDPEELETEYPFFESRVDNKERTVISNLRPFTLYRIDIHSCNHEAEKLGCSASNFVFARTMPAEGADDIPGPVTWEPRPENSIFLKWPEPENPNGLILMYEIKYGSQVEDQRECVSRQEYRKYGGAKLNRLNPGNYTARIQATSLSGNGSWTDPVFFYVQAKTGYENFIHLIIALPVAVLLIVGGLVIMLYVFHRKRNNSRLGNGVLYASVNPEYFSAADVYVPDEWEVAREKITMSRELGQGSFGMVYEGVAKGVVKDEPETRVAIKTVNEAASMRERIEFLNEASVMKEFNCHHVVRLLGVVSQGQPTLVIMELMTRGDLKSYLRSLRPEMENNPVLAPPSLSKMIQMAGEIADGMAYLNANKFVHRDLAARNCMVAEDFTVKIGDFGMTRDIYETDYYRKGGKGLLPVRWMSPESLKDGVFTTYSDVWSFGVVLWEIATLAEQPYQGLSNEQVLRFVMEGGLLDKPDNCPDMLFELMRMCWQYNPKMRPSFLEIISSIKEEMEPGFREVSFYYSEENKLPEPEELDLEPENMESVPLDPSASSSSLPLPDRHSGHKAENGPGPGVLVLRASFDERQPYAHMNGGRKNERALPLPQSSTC
In a further data set the test system is DBTRG cells. In words: MTS/clonogenic antiproliferative and cell viability assay, DBTRG cells. The class given is cell-based. The conditions noted are these: 72 hours, estimated from MTS and clonogenic assays.
A further data set has as its system U-87 cells. Description: MTS/clonogenic antiproliferative and cell viability assay, U-87 cells. The class given is cell-based. The conditions noted are these: Homo sapiens, U-87 MG, 72 hours, estimated from MTS and clonogenic assays.
The next data set has as its system U87 cells. In words: Tumor growth in glioblastoma mouse model (subcutaneous U87 cells). The class given is in vivo, mice. The conditions noted are these: C4 50 mg/kg IP. Here is the method:
(§1) Female SCID mice were purchased six weeks old and were maintained in an animal facility, and all experiments were performed in compliance with NIH animal use guidelines using IACUC protocol. The 2x10^6 U87 cells or GL261 cells were injected into mice subcutaneously. When tumor size reached 100 mm^3, drug was introduced by IP daily, 5 days per week for several weeks. Tumor diameters were measured with calipers and tumor volume in mm^3 was calculated using this formula: tumor volume=(width)^2×Length/2. At the end of the experiment, tumor weight and volume were determined. Tumor samples were collected for Western blotting and for immunohistochemical analysis. Endpoints of anti-tumor efficacy include: 1) differences in tumor size between treated and control animals at termination of the experiment (T/C % and T-C4anal/T-C4%) and 2) differences in blood vessel density and lymphatic vessel density. One hour following the last dose, tumor tissues were snap frozen and Erk1/2, Akt, FAK and VEGFR-3 phosphorylation, as well as total protein levels (to ensure equal loading), were determined ex vivo by Western blot. Tumor tissues were sectioned and stained for total and phosphorylated FAK and VEGFR-3 in addition to TUNEL staining (apoptosis), Ki67 (proliferation), CD31 (angiogenesis) and LYVE1 (lymphangiogenesis). Necropsy was performed to evaluate drug toxicity. Experiments were repeated at least in triplicate, and data were reported as mean ±standard error of the mean. An ANOVA or student's t-test was used as appropriate to compare data between groups. Statistical significance was determined at P<0.05.

The subject of the next data set is GL261 cells. In words: Tumor growth in glioma syngeneic mouse model (subcutaneous GL261 cells). In kind it is in vivo, mice. The conditions noted are these: C4 50 mg/kg IP. Here is the method:
as §1, with “Necropsy was performed to evaluate drug toxicity. Experiments were repeated at least in triplicate, and data were reported as mean ±standard error of the mean. An ANOVA or student's t-test was used as appropriate to compare data between groups.” left out

Data set [3] is described as follows: 7-day multiple-dose MTD toxicologic study of Suprastin (C4), oral gavage, CD-1 mice. In kind it is in vivo. The conditions noted are these: both sexes, CD-1, mouse, in vivo; oral gavage in mice, daily for 7 days. Here is the method:
(§2) • A 7-day, multiple-dose maximum tolerated dose toxicologic study of the drug Suprastin (C4) was performed in CD-1 mice.
(§3) • The drug Suprastin (C4) was the test article. The chemical name for Suprastin is chloropyramine hydrochloride or N-[(4-chlorophenyl) methyl]-N[2-(dimethylamino) ethyl] pyridin-2-amine. The test article was prepared in sterile water. The test article was prepared by the sponsor and delivered to the study director prior to the study. The test article was stored in the refrigerator (4° C.), protected from light. • Control article:
(§4) The CD-1 [Hsd:ICR(CD-1)] albino mouse was used. The CD-1 mouse is conventionally used in toxicity tests to provide information on which human hazards can be judged, and is one of the choices of species preferred by regulatory agencies. Mice were obtained from Harlan (Frederick, Md.).
(§5) Mice were acclimated for 2 days prior to testing. 20 male and 20 female mice, nulliparous and non-pregnant, were used. Normal weight gain, appearance and behavior were factors used to select healthy mice for testing. Only naive animals were used. Mice weighed 23-33 grams (males) and 19-26 grams (females), and were in good health at the start of the study. Mice weighed 22-35 grams (males) and 18-26 grams (females) at the conclusion of the study.
(§6) Mice were randomly assigned to 4 experimental groups (controls, low-dose, medium-dose, and high-dose) consisting of 5 males and 5 females. Mice were identified via cage cards, tail markings, and ear punch. Mouse identification codes contained information regarding experimental group (C=control, L=low-dose, IVI=medium-dose, H=high-dose), sex (M−male, F−female), and animal number (1-5).
(§7) • A 7-day multiple-dose MTD toxicology study was performed.
(§8) • The test article Suprastin (C4) was prepared in sterile water and administered orally (PO) via orogastric gavage as a single daily dose on days 0-6 in the morning. The compound was diluted with the control article (sterile water) so as not to exceed a volume of […]. The test article (Suprastin) was stored in the refrigerator (4° C.) and allowed to come to room temperature prior to administration. Mice were randomly allocated into 4 groups (controls, low-dose, medium-dose, and high-dose) consisting of 5 males and 5 females. Dosages were calculated on a “per mouse” basis, not on a mg/kg basis. Mice in the low-dose group received the equivalent of a 75 mg/kg dose for a 20 g mouse (1.5 mg). Mice in the medium-dose group received the equivalent of a 150 mg/kg dose for a 20 g mouse (3 mg). Mice in the high-dose group received the equivalent of a 300 mg/kg dose for a 20 g mouse (6 mg). Mice in the control group received 100pL of the control article (sterile water). Groups received the following doses, drug concentrations, and gavage volumes, as outlined in Table 4: […]

For another data set, the system named is CD-1 mice. The data set is described as above. The class given is in vivo. Here is the method:
as §2, §3, §4, §5, §6, §7, §8

The target in data set [4] is T1, FAK. Description: FAK Y397 phosphorylation. The class given is biochemical. The settings on record: various assays.

Where only a bound is given, the exact number is not on record here.

T1 sequence (Q05397 whole entry): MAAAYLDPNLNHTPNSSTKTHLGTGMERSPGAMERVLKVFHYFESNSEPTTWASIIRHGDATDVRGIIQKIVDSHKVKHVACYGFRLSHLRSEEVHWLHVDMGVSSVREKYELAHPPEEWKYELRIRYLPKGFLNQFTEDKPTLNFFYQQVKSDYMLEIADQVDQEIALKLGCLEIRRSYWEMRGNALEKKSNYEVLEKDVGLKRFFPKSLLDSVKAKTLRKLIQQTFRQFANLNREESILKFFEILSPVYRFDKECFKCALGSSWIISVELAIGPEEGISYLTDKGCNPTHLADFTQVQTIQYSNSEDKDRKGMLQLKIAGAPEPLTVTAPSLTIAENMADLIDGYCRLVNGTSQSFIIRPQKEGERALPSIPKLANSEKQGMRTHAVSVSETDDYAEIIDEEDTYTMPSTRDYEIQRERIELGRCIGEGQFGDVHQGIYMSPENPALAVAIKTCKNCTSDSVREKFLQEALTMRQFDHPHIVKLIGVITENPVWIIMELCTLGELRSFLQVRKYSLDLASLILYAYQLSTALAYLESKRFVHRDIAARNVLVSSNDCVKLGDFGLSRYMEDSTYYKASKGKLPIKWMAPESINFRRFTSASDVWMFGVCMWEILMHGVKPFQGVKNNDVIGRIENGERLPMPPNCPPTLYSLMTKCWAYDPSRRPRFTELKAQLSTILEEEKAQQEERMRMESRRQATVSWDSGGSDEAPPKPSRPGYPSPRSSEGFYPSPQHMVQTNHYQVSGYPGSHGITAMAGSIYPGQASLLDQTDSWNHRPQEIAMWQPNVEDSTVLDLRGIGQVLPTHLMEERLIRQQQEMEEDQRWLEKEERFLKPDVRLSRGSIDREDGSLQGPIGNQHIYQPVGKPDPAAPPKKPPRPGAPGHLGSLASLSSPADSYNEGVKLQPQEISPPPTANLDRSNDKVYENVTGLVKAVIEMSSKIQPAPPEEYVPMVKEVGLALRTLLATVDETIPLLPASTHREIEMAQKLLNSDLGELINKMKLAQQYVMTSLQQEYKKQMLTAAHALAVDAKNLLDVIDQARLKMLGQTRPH
Procedure for DBTRG cells: (§9) MTT assay protocol: Day 1: cells plated in 96-well plates. Day 2: chemical agents (DMSO) are added to the wells containing cells(in triplicate). Day 3: 100 μM of MTS reagent is added to each well; ager incubating the plates for an hour, readings are taken using a spectrometer.
Procedure for U-87 cells: as §9

In the case of `CS(=O)(=O)c1cccc(CNc2nc(Nc3ccc4c(c3)CCC(=O)N4)ncc2C(F)(F)F)c1` [PF-573,228], in [1], the “cell growth and survival in vitro” value was “did not inhibit cell growth and survival in vitro”; the cell motility result is recorded as “inhibited only motility”.
`CNC(=O)c1ccccc1Nc1nc(Nc2ccc(N3CCOCC3)cc2OC)ncc1Cl` [TAE226]: at FAK [2], the Y397-FAK phosphorylation result is “effectively blocked”. For the same molecule, in the data set with glioma and ovarian tumor, the “tumor growth in vivo” value is “inhibited glioma and ovarian tumor growth in vivo”. On IGFR kinase, the IGFR kinase inhibition entry is “inhibited IGFR kinase”.
As for `CN(C)CCN(Cc1ccc(Cl)cc1)c1ccccn1` [C4, N′-[(4-chlorophenyl)methyl]-N,N-dimethyl-N′-pyridin-2-yl-ethane-1,2-diamine], the IC50 in the data set on DBTRG cells and with U-87 cells was 50 to 100 µM each time. For the same molecule, the “tumor growth reduction (tumor weight)” value in the data set with U87 cells (after 4 weeks of treatment) was determined as 71.7%; in the data set on GL261 cells (after 3 weeks of treatment) it was 57%. The “tumor volume smaller in the treated group” value in the data set with U87 cells (after 4 weeks of treatment) was 58%. Also, in the data set on U87 cells (after 9 days of treatment), the “size of treated tumors vs control group” value is listed as “significantly smaller”. Moreover, the “weight of treated tumors vs control group” value with U87 cells (after 27 days of treatment) and with GL261 cells (after 23 days of treatment) was “significantly smaller” throughout. This molecule yielded an MTD at 7 days in data set [3] of at least 150 mg/kg. Further, the “clinical signs, low- and medium-dose groups” value in the data set on CD-1 mice (mouse, in vivo) is on record as “slight ruffled fur”. The “toxicity findings, high-dose group” value in the data set on CD-1 mice (mouse, in vivo, po, 300 mg/kg) is “weight loss, severe clinical signs of abdominal distention, and mortality due to gastrointestinal dilatation”. Besides, the “mortality and body weight, low- and medium-dose groups” value in the data set with CD-1 mice (oral gavage daily days 0-6, 75 and 150 mg/kg) is “no mortality or decrement in mean body weight”. The FAK dephosphorylation result on FAK [4] was “specifically dephosphorylates FAK”.

As a reminder, the IC50 is the point on the concentration scale where inhibition reaches its midpoint.
